Data from PMC6686011, “Ruthenium(II) complexes with 6-methyl-2-thiouracil selectively reduce cell proliferation, cause DNA double-strand break and trigger caspase-mediated apoptosis through JNK/p38 pathways in human acute promyelocytic leukemia cells” (Scientific Reports, 2019).

Key:
[1] = system: any cells; test: Cytotoxicity, alamar blue assay, whole cell panel; assay type: cell-based; details: 72 h, not cytotoxic at concentrations tested
Experimental: (§1) Cytotoxicity was measured using alamar blue assay and was performed following the procedure that was described previously[21],[22]. Briefly, cells were inserted in 96-well plates and incubated overnight. Then, the complexes were dissolved in dimethyl sulfoxide (DMSO, LGC Biotechnology, São Paulo, SP, Brazil) and added to each well and incubated for 72 h. […] Before the end of treatment (4 h for cell lines and 24 h for PBMC), 20 μL of a stock solution (0.312 mg/mL) of alamar blue (resazurin, Sigma-Aldrich Co.) were added to each well. Absorbance at 570 nm and 600 nm was measured using SpectraMax 190 Microplate Reader (Molecular Devices, Sunnyvale, CA, USA).

[2] = Toxicological evaluation in xenograft mice; assay type: in vivo, C.B-17 SCID mice; details: complex 1 20 and 40 mg/kg
Experimental: To assess toxicological aspects, mice were weighed at the beginning and at the end of the experiment as described previously by Rodrigues et al.[26]. […] Hematological analysis was performed using the Advia 60 hematology system (Bayer, Leverkusen, Germany). Livers, kidneys, lungs and hearts were removed, weighed and examined for any signs of macroscopic lesions, color changes and/or hemorrhages. After macroscopic examination, tumors, livers, kidneys, lungs and hearts were fixed in 4% formalin buffer and embedded in paraffin. Tissue sections were stained with hematoxylin/eosin staining, and a pathologist performed the histological analyses under optical microscopy.

[3] = system: HL-60 cell xenografts; test: Human myeloid leukemia xenograft model; assay type: in vivo, C.B-17 SCID mice
Experimental: Fifty six specific-pathogen-free (SPF) C.B-17 severe combined immunodeficient (SCID) mice (females, 23–26 g) were used in this study. The animals were obtained and maintained at animal facilities from Gonçalo Moniz Institute-FIOCRUZ (Salvador, Bahia, Brazil), and housed in cages with free access to food and water, and kept under a 12:12 h light-dark cycle (lights on at 6:00 a.m.). The animals were treated according to ethical principles for animal experimentation of SBCAL (Brazilian Association of Laboratory Animal Science), Brazil. Experimental protocol have been approved (number 06/2015) by Animal Ethics Committee of Gonçalo Moniz Institute-FIOCRUZ (Salvador, Bahia, Brazil).
Human myeloid leukemia xenograft model was carry out as described previously by Rodrigues et al.[26] with minor modifications. HL-60 cells (2.5 × 10^7 cells/500 µL) were implanted subcutaneously into the left front armpit of the mice. […] When the tumors reached 100 to 200 mm^3 (22 days after HL-60 cells injection), the animals were treated through the intraperitoneal route (200 µL per animal) once a day for 13 consecutive days. One day after the end of the treatment, the animals were anesthetized, and peripheral blood samples were collected from brachial artery. Animals were euthanized by anesthetic overdose, and tumors were excised and weighed.

[4] = system: PBMC (human peripheral blood mononuclear cells); test: Cytotoxicity, alamar blue assay; assay type: cell-based; details: non-cancer cells, 72 h, read-out: IC50 and 95% CI, PBMC
Description: HL-60 (human acute promyelocytic leukemia), K-562 (human chronic myelogenous leukemia), HCT116 (human colon carcinoma), HepG2 (human hepatocellular carcinoma), HSC-3 (human oral squamous cell carcinoma), SCC-9 (human oral squamous cell carcinoma), B16-F10 (mouse melanoma), MRC-5 (human lung fibroblast), WT SV40 MEF (wild-type immortalized mouse embryonic fibroblast) and BAD KO SV40 MEF (BAD gene knockout immortalized mouse embryonic fibroblast) cell lines were obtained from American Type Culture Collection (ATCC, Manassas, VA, USA). Human peripheral blood mononuclear cells (PBMC) were isolated using standard Ficoll density gradient from heparinized blood collected from 20- to 35-year-old, non-smoker healthy donors with informed consent (number 031019/2013) approved by Human Ethics Committee of Gonçalo Moniz Institute from Oswaldo Cruz Foundation (IGM-FIOCRUZ/BA), and all experiments were performed in accordance with relevant guidelines and regulations. Cells were cultured as recommended by ATCC guidelines and a mycoplasma stain kit (Sigma-Aldrich) was used to validate the use of cells free from contamination. Cell viability in all experiments was examined using the trypan blue exclusion (TBE) assay. Over 90% of the cells were viable at the beginning of the culture.
as §1

[5] = system: SCC-4 (human oral squamous cell carcinoma); test: Cytotoxicity, alamar blue assay; assay type: cell-based; details: for Selectivity index, SCC-4 versus MRC-5: SI = IC50[MRC-5]/IC50[SCC-4]; for Selectivity index, SCC-4 versus PBMC: SI = IC50[PBMC]/IC50[SCC-4]
Experimental: as §1

[6] = system: MRC-5 (human lung fibroblast); test: Cytotoxicity, alamar blue assay; assay type: cell-based; details: non-cancer cells, 72 h, read-out: IC50 and 95% CI, MRC-5
Experimental: as §1

[7] = system: WT SV40 MEF (wild-type immortalized mouse embryonic fibroblasts); test: Cytotoxicity, alamar blue assay; assay type: cell-based; details: 72 h, read-out: IC50, WT SV40 MEF cell line
Experimental: as §1

[8] = system: HCT116 (human colon carcinoma); test: Cytotoxicity, alamar blue assay; assay type: cell-based; details: for Selectivity index, HCT116 versus MRC-5: SI = IC50[MRC-5]/IC50[HCT116]; for Selectivity index, HCT116 versus PBMC: SI = IC50[PBMC]/IC50[HCT116]
Experimental: as §1

[9] = system: B16-F10 (mouse melanoma); test: Cytotoxicity, alamar blue assay; assay type: cell-based; details: for Selectivity index, B16-F10 versus MRC-5: SI = IC50[MRC-5]/IC50[B16-F10]; for Selectivity index, B16-F10 versus PBMC: SI = IC50[PBMC]/IC50[B16-F10]
Experimental: as §1

[10] = system: K-562 (human chronic myelogenous leukemia); test: Cytotoxicity, alamar blue assay; assay type: cell-based; details: for Selectivity index, K-562 versus MRC-5: SI = IC50[MRC-5]/IC50[K-562]; for Selectivity index, K-562 versus PBMC: SI = IC50[PBMC]/IC50[K-562]
Experimental: as §1

[11] = system: HepG2 (human hepatocellular carcinoma); test: Cytotoxicity, alamar blue assay; assay type: cell-based; details: for Selectivity index, HepG2 versus MRC-5: SI = IC50[MRC-5]/IC50[HepG2]; for Selectivity index, HepG2 versus PBMC: SI = IC50[PBMC]/IC50[HepG2]
Experimental: as §1

[12] = system: BAD KO SV40 MEF (immortalized mouse embryonic fibroblast with the BAD gene knocked out); test: Cytotoxicity, alamar blue assay; assay type: cell-based; details: 72 h, read-out: IC50, BAD KO SV40 MEF cell line
Experimental: as §1

[13] = system: HL-60 (human acute promyelocytic leukemia); test: Cytotoxicity, alamar blue assay; assay type: cell-based; details: for Selectivity index, HL-60 versus MRC-5: SI = IC50[MRC-5]/IC50[HL-60]; for Selectivity index, HL-60 versus PBMC: SI = IC50[PBMC]/IC50[HL-60]; for IC50: alamar blue, 72 h, read-out: IC50 and 95% CI, HL-60
Experimental: as §1

[14] = system: HSC-3 (human oral squamous cell carcinoma); test: Cytotoxicity, alamar blue assay; assay type: cell-based; details: for Selectivity index, HSC-3 versus MRC-5: SI = IC50[MRC-5]/IC50[HSC-3]; for Selectivity index, HSC-3 versus PBMC: SI = IC50[PBMC]/IC50[HSC-3]; for IC50: alamar blue, 72 h, read-out: IC50 and 95% CI, HSC-3
Experimental: as §1

[15] = system: HL-60 cells; test: Apoptosis quantification, annexin V-FITC/PI flow cytometry; assay type: cell-based, human
Experimental: Shortly, cells were washed twice with saline solution and resuspended in 100 μL of binding buffer plus 5 μL of propidium iodide (PI) and 5 μL of FITC Annexin V. Then, cells were gently mixed by vortexing and incubated for 15 min at room temperature in the dark. Finally, 400 μL of binding buffer was added to each tube, and the cell fluorescence was determined by flow cytometry, as described above. Percentage of viable, early apoptotic, late apoptotic and necrotic cells were measured. […] Cells were then analyzed by FITC Annexin V Apoptosis Detection assay as described above.

[16] = system: HL-60 cells; test: Trypan blue exclusion assay; assay type: cell-based, human
Experimental: The number of viable cells and non-viable (take up trypan blue) were counted by TBE method. Shortly, 90 μL was removed from the cell suspension and 10 μL of trypan blue (0.4%) was added. Cell counting was performed using a light microscope with a neubauer chamber.

[17] = system: HL-60 cells; test: Intracellular ruthenium quantification by energy dispersive X-ray spectrometer; assay type: cell-based, human; details: HL-60, 3 h, 500 µM
Experimental: Intracellular ruthenium quantification in HL-60 cells was evaluated by energy dispersive X-ray spectrometer (EDS)[23]. Cells were fixed in sodium cacodylate buffer (0.1 M sodium cacodylate solution pH 7.4, plus 2.5% glutaraldehyde and 2% paraformaldehyde) for at least 2 h. After washing, cells were dehydrated in an acetone series and embedded in polybed epoxy resin (Polysciences; Warrington, PA). Ultrathin sections were examined under a JEM-1230 transmission electron microscope (TEM) integrated with an EDS microanalytics system (JEOL USA, Inc., Peabody, MA, USA).

[18] = 20 mg/kg intraperitoneal once a day for 13 consecutive days
[19] = 40 mg/kg intraperitoneal once a day for 13 consecutive days

Molecule | IC50 [4] | Selectivity index, SCC-4 versus MRC-5 [5] | Selectivity index, SCC-4 versus PBMC [5] | IC50 [6] | IC50 [7] | Selectivity index, HCT116 versus MRC-5 [8] | Selectivity index, HCT116 versus PBMC [8] | Selectivity index, B16-F10 versus MRC-5 [9] | Selectivity index, B16-F10 versus PBMC [9] | Selectivity index, K-562 versus MRC-5 [10] | Selectivity index, K-562 versus PBMC [10] | Selectivity index, HepG2 versus MRC-5 [11] | Selectivity index, HepG2 versus PBMC [11] | IC50 [12] | Selectivity index, HL-60 versus MRC-5 [13] | Selectivity index, HL-60 versus PBMC [13] | IC50 [13] | Selectivity index, HSC-3 versus MRC-5 [14] | Selectivity index, HSC-3 versus PBMC [14] | IC50 [14] | further results
Cc1cc(=O)[nH]c(=S)[nH]1 [6-methyl-2-thiouracil] |  |  |  |  |  |  |  |  |  |  |  |  |  |  |  |  |  |  |  |  | IC50 [1]: > 176 µM
Cc1cc(=O)[nH]c([S][Ru]([S]c2nc(C)cc(=O)[nH]2)([PH](c2ccccc2)(c2ccccc2)c2ccccc2)[PH](c2ccccc2)(c2ccccc2)c2ccccc2)n1 [Complex 1, cis-[Ru(6m2tu)2(PPh3)2]] | 2.57 µM | 3.5 | 1.6 | 5.71 µM | 3.5 µM | 4.1 | 1.9 | 6.9 | 3.1 | 28.6 | 12.9 | 6 | 2.7 | 3.1 µM | 571 | 257 | 0.01 µM | 1.3 | 0.6 | 4.37 µM | Liver histopathology [2]: focal areas of steatosis were observed; Kidney histopathology ([2]; doxorubicin 0.1 mg/kg): Coagulation necrosis was observed in renal tubules; Lung histopathology ([2]; doxorubicin 0.1 mg/kg): inflammation was more evident; Mean of tumor mass weight [3, 18]: 0.4 ± 0.1 g; Tumor mass inhibition rate [3, 18]: 73.1%; Mean of tumor mass weight [3, 19]: 0.3 ± 0.1 g; Tumor mass inhibition rate [3, 19]: 79.9%; Tumor histomorphological analysis ([3]; 20 and 40 mg, hematoxylin/eosin): areas with nodular/encapsulated growth and extracellular matrix formation were more evident; Apoptosis (annexin V-FITC positive cells) ([15]; HL-60, 12 h, 1 μM): no statistically significant apoptosis induction; Apoptosis (annexin V-FITC positive cells) ([15]; HL-60, 12 h, 2 μM): 37.2%; Apoptosis (annexin V-FITC positive cells) ([15]; HL-60, 24 h, 1 μM): 38.5%; Apoptosis (annexin V-FITC positive cells) ([15]; HL-60, 24 h, 2 μM): 66.4%; Reduction of the number of viable cells ([16]; HL-60, 12 h, 1 μM): no statistically significant reduction; Reduction of the number of viable cells ([16]; HL-60, 12 h, 2 μM): 36.9%; Reduction of the number of viable cells ([16]; HL-60, 24 h, 1 μM): 65.3%; Reduction of the number of viable cells ([16]; HL-60, 24 h, 2 μM): 77.1%
N.N.[Cl][Pt][Cl] [cisplatin] |  |  |  |  |  |  |  |  |  |  |  |  |  |  |  |  |  |  |  |  | Intracellular platinum [17]: able to quantify platinum
O=C1[O][Pt]2([NH][C@@H]3CCCC[C@H]3[NH]2)[O]C1=O [oxaliplatin, reference compound] | 14.9 µM |  |  | 1.54 µM |  |  |  |  |  |  |  |  |  |  |  |  |  |  |  |  | IC50 ([9]; alamar blue, 72 h, read-out: IC50 and 95% CI, B16-F10): 0.03 µM; Intracellular platinum [17]: able to quantify platinum
[Ru(6m2tu)2(dppb)] [Complex 2] | 1.25 µM | 2.5 | 1 | 3.06 µM | 3.9 µM | 2.6 | 1.1 | 2.9 | 1.2 | 9 | 3.7 | 3.7 | 1.5 | 4.2 µM | 23.5 | 9.6 | 0.13 µM | 1.5 | 0.6 | 2.04 µM | Apoptosis (annexin V-FITC positive cells) ([15]; HL-60, 12 h, 1 μM): no statistically significant apoptosis induction; Apoptosis (annexin V-FITC positive cells) ([15]; HL-60, 12 h, 2 μM): 31.1%; Apoptosis (annexin V-FITC positive cells) ([15]; HL-60, 24 h, 1 μM): 32.1%; Apoptosis (annexin V-FITC positive cells) ([15]; HL-60, 24 h, 2 μM): 55.9%; Reduction of the number of viable cells ([16]; HL-60, 12 h, 1 μM): no statistically significant reduction; Reduction of the number of viable cells ([16]; HL-60, 12 h, 2 μM): 44.1%; Reduction of the number of viable cells ([16]; HL-60, 24 h, 1 μM): 36.1%; Reduction of the number of viable cells ([16]; HL-60, 24 h, 2 μM): 60.1%
